Values joined by “and” are separate entries in the source; they are usually repeats but may differ in a detail not shown here. Equal values may be shown once.
Columns and labels:
H. pylori urease (HPU) [1] = biological target: T1, H. pylori urease (HPU) (Helicobacter pylori, UniProt P69996); assay: biochemical; assay type: biochemical
T1 construct: HPU was prepared as previously described; made in house
Procedure: For the protection with inorganic compounds (BA and NaF), 0.25 mg/mL urease (HPU or JBU) was preincubated with 5 mM BA or 5 mM NaF for 20 min. Following preincubation, each sample of the protected urease was incubated with 0.5 mM Pal for 20 min. The samples containing a proper volume of respective buffer instead of Pal served as comparison with the abovementioned systems. The experiments were triply performed.

[2] = parameters: method as in PMID 24795799; details: cited from earlier work
[3] = parameters: method as in PMID 23159469; details: among berberine, coptisine, palmatine and epiberberine; in vitro and in vivo assays; cited from earlier work
H. pylori urease (HPU) [4] = biological target: T1, H. pylori urease (HPU); assay: Inhibition kinetic study (Lineweaver-Burk plots); assay type: biochemical; details: for Lineweaver-Burk plot raw value (reciprocal velocity): Fig 3A HPU
Procedure: Michaelis constant KM and the maximum velocity vmax values were evaluated by means of Lineweaver—Burk plots, using the initial velocities at different urea concentrations ([…]), in the absence or presence of 1.00, 0.50, and 0.25 mM Pal. The concentrations of HPU and JBU were both 0.25 mg/mL in the assays. The values were obtained by applying nonlinear regression to the Michaelis-Menten equation. All experiments were performed in triplicate.

H. pylori urease (HPU) [5] = biological target: T1, H. pylori urease (HPU); assay: Urease inhibition test (modified Berthelot method); assay type: biochemical
Procedure: HPU was prepared as previously described. The standard urease assay mixture included 150 mM urea in 20 mM HEPES buffer (pH 7.5). After addition of small aliquots of enzyme-containing solution of urease, the assay ran for 20 min. The enzymatic activity was evaluated spectrophotometrically by detecting the ammonia concentration at 595 nm according to the modified Berthelot (phenol-hypochlorite) method. Urease activity was estimated with JBU as a standard, the specific activity of HPU was determined to be 17.0 U/mg. One unit of urease activity was defined as 1 μmol of ammonia released per min at 25°C. The amount of protein was determined by commercial Bradford Protein Assay Kit with BSA as a standard. The amount of ammonia released was decided from a standard curve. The activity of uninhibited urease was defined as the control activity of 100%.
Reaction mixtures comprising 0.25 mg/mL HPU or JBU and different concentrations of Pal or AHA at the volume ratio of 1:1, were incubated at 37°C in 20 mM HEPES buffer (pH 7.5) in the absence of urea. The reactions were initiated by mixing the urease and the inhibitor. The preincubation mixture was withdrawn at 20 min and immediately transferred into the standard assay mixtures for urease residual activity determination. Inhibition rate (%) was calculated following the formula: I % = (1-activity with inhibitors/activity without inhibitors) × 100%. The IC50 was expressed as the concentration of inhibitor that decreased urease activity by 50% and calculated by plotting the percent of inhibition. The experiments were triply performed.

T1 sequence (P14916 whole entry): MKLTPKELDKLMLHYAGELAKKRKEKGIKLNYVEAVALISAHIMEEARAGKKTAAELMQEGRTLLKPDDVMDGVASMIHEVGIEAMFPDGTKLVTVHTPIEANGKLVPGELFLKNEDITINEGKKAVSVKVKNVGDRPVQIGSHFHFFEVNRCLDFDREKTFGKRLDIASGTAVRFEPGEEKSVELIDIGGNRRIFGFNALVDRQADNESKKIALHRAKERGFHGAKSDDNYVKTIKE
T1 sequence (P69996 whole entry): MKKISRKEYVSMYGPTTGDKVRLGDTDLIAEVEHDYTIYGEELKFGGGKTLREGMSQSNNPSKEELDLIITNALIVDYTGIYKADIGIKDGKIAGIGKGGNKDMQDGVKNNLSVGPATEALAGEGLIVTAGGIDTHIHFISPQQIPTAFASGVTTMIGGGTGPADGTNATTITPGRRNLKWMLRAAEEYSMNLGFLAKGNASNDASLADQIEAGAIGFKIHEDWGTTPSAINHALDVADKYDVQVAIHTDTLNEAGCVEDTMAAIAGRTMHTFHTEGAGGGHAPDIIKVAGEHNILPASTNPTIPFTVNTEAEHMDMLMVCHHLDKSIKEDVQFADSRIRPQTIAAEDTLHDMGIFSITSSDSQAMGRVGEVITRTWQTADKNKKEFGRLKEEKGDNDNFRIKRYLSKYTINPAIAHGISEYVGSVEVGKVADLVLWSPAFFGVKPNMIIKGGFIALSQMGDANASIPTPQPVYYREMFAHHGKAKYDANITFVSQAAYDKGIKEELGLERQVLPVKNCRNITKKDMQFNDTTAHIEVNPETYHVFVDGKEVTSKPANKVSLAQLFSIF

Q: Which results are given for `COc1cc2c(cc1OC)-c1cc3ccc(OC)c(OC)c3c[n+]1CC2` [Pal, Palmatine]?
A: Residual urease activity (percent of control) (H. pylori urease (HPU) [1]; Fig 4C HPU, BA or NaF 5 mM preincubated 20 min, Pal 0.5 mM 20 min): 23.7773% and 26.341%; activity of enzyme inactivated by Pal in the presence of BA (H. pylori urease (HPU) [1]; HPU, 5 mM BA + 0.5 mM Pal, mean): 22.42%; activity of enzyme inactivated by Pal in the presence of NaF (H. pylori urease (HPU) [1]; HPU, 5 mM NaF + 0.5 mM Pal, mean): 20.35%; remaining activity at 500 µM (H. pylori urease (HPU) [1]; read-out: Residual urease activity (percent of control), Fig 4C HPU, BA or NaF 5 mM preincubated 20 min, Pal 0.5 mM 20 min): 23.1%; anti-ulcerogenic activity [2]: better than that of the C. chinensis extract and its active principle berberine; toxicity [3]: minimal; Lineweaver-Burk plot raw value (reciprocal velocity) (H. pylori urease (HPU) [4]; Pal=0.25 mM, 1/urea 0.0333333): 3.3428 and 3.026 and 3.128; Lineweaver-Burk plot raw value (reciprocal velocity) (H. pylori urease (HPU) [4]; Pal=0.25 mM, 1/urea 0.0666667): 3.79 and 3.489 and 3.584; Lineweaver-Burk plot raw value (reciprocal velocity) (H. pylori urease (HPU) [4]; Pal=0.25 mM, 1/urea 0.133333): 4.108 and 3.898 and 3.84; Lineweaver-Burk plot raw value (reciprocal velocity) (H. pylori urease (HPU) [4]; Pal=0.25 mM, 1/urea 0.266667): 4.796 and 4.692 and 4.666; Lineweaver-Burk plot raw value (reciprocal velocity) (H. pylori urease (HPU) [4]; Pal=0.25 mM, 1/urea 0.533333): 6.008 and 5.574 and 5.658; Lineweaver-Burk plot raw value (reciprocal velocity) (H. pylori urease (HPU) [4]; Pal=0.25 mM, 1/urea 1.06667): 7.22 and 6.84 and 7.11; Lineweaver-Burk plot raw value (reciprocal velocity) (H. pylori urease (HPU) [4]; Pal=0.50 mM, 1/urea 0.0333333): 6.847 and 6.4288 and 8.753; Lineweaver-Burk plot raw value (reciprocal velocity) (H. pylori urease (HPU) [4]; Pal=0.50 mM, 1/urea 0.0666667): 7.294 and 6.935 and 7.391; Lineweaver-Burk plot raw value (reciprocal velocity) (H. pylori urease (HPU) [4]; Pal=0.50 mM, 1/urea 0.133333): 8.5 and 7.307 and 9.1701; Lineweaver-Burk plot raw value (reciprocal velocity) (H. pylori urease (HPU) [4]; Pal=0.50 mM, 1/urea 0.266667): 11.3701 and 11.0558; Lineweaver-Burk plot raw value (reciprocal velocity) (H. pylori urease (HPU) [4]; Pal=0.50 mM, 1/urea 0.533333): 13.369 and 12.3993; Lineweaver-Burk plot raw value (reciprocal velocity) (H. pylori urease (HPU) [4]; Pal=0.50 mM, 1/urea 1.06667): 12.1433 and 18.315 and 12.9786; Lineweaver-Burk plot raw value (reciprocal velocity) (H. pylori urease (HPU) [4]; Pal=1.00 mM, 1/urea 0.0333333): 10.7527 and 9.785 and 8.636; Lineweaver-Burk plot raw value (reciprocal velocity) (H. pylori urease (HPU) [4]; Pal=1.00 mM, 1/urea 0.0666667): 12.8452 and 10.5708 and 10.7296; Lineweaver-Burk plot raw value (reciprocal velocity) (H. pylori urease (HPU) [4]; Pal=1.00 mM, 1/urea 0.133333): 12.2775 and 12.7551 and 11.5942; Lineweaver-Burk plot raw value (reciprocal velocity) (H. pylori urease (HPU) [4]; Pal=1.00 mM, 1/urea 0.266667): 16.5017 and 10.1061 and 12.6342; Lineweaver-Burk plot raw value (reciprocal velocity) (H. pylori urease (HPU) [4]; Pal=1.00 mM, 1/urea 0.533333): 22.1239 and 12.1729 and 15.3022; Lineweaver-Burk plot raw value (reciprocal velocity) (H. pylori urease (HPU) [4]; Pal=1.00 mM, 1/urea 1.06667): 26.3505 and 13.2013 and 19.861; type of urease inhibition (H. pylori urease (HPU) [4]; HPU, Lineweaver-Burk): noncompetitive; IC50 (H. pylori urease (HPU) [5]): 530 ± 10 µM; Residual activity (H. pylori urease (HPU) [5]; Fig 2A HPU, Pal 0.0149062 mM, replicates): 97.2774% and 99.8185%; Residual activity (H. pylori urease (HPU) [5]; Fig 2A HPU, Pal 0.0298125 mM, replicates): 98.3238% and 98.6586%; Residual activity (H. pylori urease (HPU) [5]; Fig 2A HPU, Pal 0.059625 mM, replicates): 95.8144% and 91.8003%; Residual activity (H. pylori urease (HPU) [5]; Fig 2A HPU, Pal 0.11925 mM, replicates): 84.6333% and 83.9334%; Residual activity (H. pylori urease (HPU) [5]; Fig 2A HPU, Pal 0.2385 mM, replicates): 71.2237% and 68.6838%; Residual activity (H. pylori urease (HPU) [5]; Fig 2A HPU, Pal 0.477 mM, replicates): 44.3368% and 41.1296%; Residual activity (H. pylori urease (HPU) [5]; Fig 2A HPU, Pal 0.954 mM, replicates): 18.2056% and 23.6712%; Residual activity (H. pylori urease (HPU) [5]; Fig 2C HPU, head prints Pal 0.00755209 mM, replicates): 104.061% and 86.9419%; Residual activity (H. pylori urease (HPU) [5]; Fig 2C HPU, head prints Pal 0.0151042 mM, replicates): 98.3628% and 84.9736%; Residual activity (H. pylori urease (HPU) [5]; Fig 2C HPU, head prints Pal 0.0302084 mM, replicates): 80.4878% and 87.2209% and 66.9067%; Residual activity (H. pylori urease (HPU) [5]; Fig 2C HPU, head prints Pal 0.0604167 mM, replicates): 64.023% and 48.6958%; Residual activity (H. pylori urease (HPU) [5]; Fig 2C HPU, head prints Pal 0.120833 mM, replicates): 34.9663% and 29.6848%; Residual activity (H. pylori urease (HPU) [5]; Fig 2C HPU, head prints Pal 0.241667 mM, replicates): 20.774% and 15.3785%; remaining activity at 14.9062 µM (H. pylori urease (HPU) [5]; read-out: Residual activity, Fig 2A HPU, Pal 0.0149062 mM, replicates): 98.5%; remaining activity at 29.8125 µM (H. pylori urease (HPU) [5]; read-out: Residual activity, Fig 2A HPU, Pal 0.0298125 mM, replicates): 92%

From paper PMC5207512, “Inhibition of Helicobacter pylori and Its Associated Urease by Palmatine: Investigation on the Potential Mechanism” (PLoS ONE, 2017)
